In patent US20260242395A1, “AMINOHETEROARYL KINASE INHIBITORS” (ALLORION THERAPEUTICS INC, priority 2022, published 2026) one finds IC50 data, which are given here for 24 compounds.

Common to all, as to type: biochemical
Assay [1] addresses T1, CDK7/CyclinH/MAT1 (Homo sapiens, UniProt P50613).
T1 construct: purchased Millipore 14-476M
The assay is described as follows: CDK7/CyclinH/MAT1 kinase inhibitory activity (Caliper mobility shift). The following applies: enzyme 12.5 nM, ATP 70 μM, 28° C. 30 min; read-out: CDK7/Cyclin H/MAT1 IC50. The method, then: CDK7/CyclinH/MAT1 kinase inhibitory activity (IC50): 5 μl of various dilutions of test compound in 1× kinase buffer (20 mM HEPES, pH 7.5, 10 mM MgCl2, 2 mM DTT and 0.01% Triton X-100) was mixed with 10 μL of CDK7/CyclinH/MAT1 (Millipore, 14-476M #, final concentration 12.5 nM in 1× Kinase buffer) in 384 plates and incubated at room temperature for 10 min. To initiate each reaction, 10 μL of peptide solution containing fluorescently-labeled-peptide CTD3 (5-FAM-[…], GL, SY346885 #, final concentration 3000 nM) and ATP (final concentration 70 μM) in 1× Kinase buffer was added to each of the wells containing test compound and CDK7/CyclinH/MAT1 mixture. The reaction is then allowed to proceed at 28° C. for 30 min and terminated by the addition of 25 μL stop buffer (100 mM HEPES pH 7.5, 50 mM EDTA, 0.2% Coating Reagent #3 (Perkin Elmer, 760050 #) and 0.015% Brij-35).
(§1) Following the kinase reaction, Caliper EZ reader II (Downstream voltages: −500V, Upstream voltages: −2250V, Base pressure −0.5 PSI, Screen pressure −1.2 PSI) was used to separate the phosphoiylated (product) and the unphosphorylated (substrate) fluorescently-labeled peptide CTD3 based on their different mobility. Both substrate and product were measured and the ratio of these values were used to generate % conversion by Caliper EZ reader II. These conversion values were then transformed into % inhibition of kinase activity using the formula: % Inhibition=[(MA−X)/(MA−MI)]×100% where MA=conversion value of DMSO only controls, MI=conversion value of no enzyme controls and X=conversion value at any given compound dose. IC50 values were then calculated by plotting dose-response curves and then using the XLfit application in Excel software.

For assay [2], the target named is T2, CDK1/CyclinB (Homo sapiens, UniProt P06493).
T2 construct: purchased Millipore 14-450M
T2 sequence (P06493 whole entry): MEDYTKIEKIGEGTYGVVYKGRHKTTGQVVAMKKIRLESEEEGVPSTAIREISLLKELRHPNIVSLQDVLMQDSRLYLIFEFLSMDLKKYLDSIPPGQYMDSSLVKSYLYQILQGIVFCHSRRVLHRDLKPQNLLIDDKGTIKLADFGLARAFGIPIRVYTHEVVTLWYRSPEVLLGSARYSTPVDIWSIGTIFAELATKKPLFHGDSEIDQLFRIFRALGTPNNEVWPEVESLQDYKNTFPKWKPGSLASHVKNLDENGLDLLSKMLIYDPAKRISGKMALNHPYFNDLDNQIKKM
T2 sequence (P14635 whole entry partner): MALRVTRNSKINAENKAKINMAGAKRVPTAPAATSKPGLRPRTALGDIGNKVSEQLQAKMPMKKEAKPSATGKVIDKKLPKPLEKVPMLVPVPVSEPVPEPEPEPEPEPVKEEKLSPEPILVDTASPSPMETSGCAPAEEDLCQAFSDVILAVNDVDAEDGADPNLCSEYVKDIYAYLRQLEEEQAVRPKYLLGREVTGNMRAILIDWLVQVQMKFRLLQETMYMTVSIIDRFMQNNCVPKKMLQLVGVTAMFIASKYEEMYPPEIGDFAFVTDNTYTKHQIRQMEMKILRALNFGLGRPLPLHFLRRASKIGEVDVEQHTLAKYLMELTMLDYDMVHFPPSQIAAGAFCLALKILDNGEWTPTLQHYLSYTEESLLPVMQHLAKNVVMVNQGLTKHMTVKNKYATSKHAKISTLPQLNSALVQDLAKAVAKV
The assay is described as follows: CDK1/CyclinB kinase inhibitory activity (Caliper mobility shift). As to conditions: enzyme 3 nM, ATP 20 μM, 28° C. 30 min; read-out: CDK1/Cyclin B1 IC50. The method, then:
CDK1/CyclinB kinase inhibitory activity (IC50): 5 μl of various dilutions of test compound in 1× kinase buffer (50 mM HEPES pH 7.5, 10 mM MgCl2, 2 mM DTT and 0.01% Brij-35) was mixed with 10 μL of CDK1/CyclinB (Millipore, 14-450M #, final concentration 3 nM in 1× Kinase buffer) in 384 plates and incubated at room temperature for 10 min. To initiate each reaction, 10 μL of peptide solution containing fluorescently-labeled-peptide 18(5-FAM-QSPKKG-CONH2) (GL, 114202 #, final concentration 3000 nM) and ATP (final concentration 20 μM) in 1× Kinase buffer was added to each of the wells containing test compound and CDK1/CyclinB mixture. The reaction is then allowed to proceed at 28° C. for 30 min and terminated by the addition of 25 μL stop buffer (100 mM HEPES pH 7.5, 50 mM EDTA, 0.2% Coating Reagent #3 (Perkin Elmer, 760050 #) and 0.015% Brij-35).
as §1, with “phosphorylated” for “phosphoiylated”, “18” for “CTD3”

Assay [3] has as its target T3, CDK4/CyclinD1 (Homo sapiens, UniProt P11802).
T3 construct: purchased ProQinase 0142-0143-1
The assay is described as follows: CDK4/CyclinD1 kinase inhibitory activity (Caliper mobility shift). The following applies: enzyme 20 nM, ATP 672 uM, 28° C. 30 min; read-out: CDK4/Cyclin D1 IC50. In short, it runs like this:
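Recombinant CDK4/Cyclin D1 (20 nM final) preincubated 10 min at room temperature with compound in HEPES pH 7.5 buffer with MgCl2, DTT and Triton X-100. Reaction started with 3000 nM FAM-labelled peptide and 672 uM ATP, run 30 min at 28° C, stopped with EDTA. Mobility-shift % conversion gave % inhibition, and IC50 came from dose-response fits.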

T3 sequence (P11802 whole entry): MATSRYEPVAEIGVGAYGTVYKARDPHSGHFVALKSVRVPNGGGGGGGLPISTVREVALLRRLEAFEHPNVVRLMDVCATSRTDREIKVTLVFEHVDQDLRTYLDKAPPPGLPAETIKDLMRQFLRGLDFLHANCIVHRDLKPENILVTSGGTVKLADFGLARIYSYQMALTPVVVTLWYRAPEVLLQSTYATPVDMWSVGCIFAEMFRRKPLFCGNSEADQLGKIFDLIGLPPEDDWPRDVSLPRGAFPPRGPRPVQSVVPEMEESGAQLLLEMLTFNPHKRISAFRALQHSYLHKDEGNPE
T3 sequence (P24385 whole entry partner): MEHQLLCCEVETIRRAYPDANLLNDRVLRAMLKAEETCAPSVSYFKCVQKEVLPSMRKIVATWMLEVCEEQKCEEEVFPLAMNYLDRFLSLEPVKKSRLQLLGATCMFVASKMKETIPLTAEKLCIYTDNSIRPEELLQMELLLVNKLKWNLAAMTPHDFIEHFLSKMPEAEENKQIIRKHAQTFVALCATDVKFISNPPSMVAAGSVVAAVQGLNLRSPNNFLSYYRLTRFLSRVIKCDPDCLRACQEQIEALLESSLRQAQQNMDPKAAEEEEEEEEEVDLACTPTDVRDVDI
T1 sequence (P50613 whole entry): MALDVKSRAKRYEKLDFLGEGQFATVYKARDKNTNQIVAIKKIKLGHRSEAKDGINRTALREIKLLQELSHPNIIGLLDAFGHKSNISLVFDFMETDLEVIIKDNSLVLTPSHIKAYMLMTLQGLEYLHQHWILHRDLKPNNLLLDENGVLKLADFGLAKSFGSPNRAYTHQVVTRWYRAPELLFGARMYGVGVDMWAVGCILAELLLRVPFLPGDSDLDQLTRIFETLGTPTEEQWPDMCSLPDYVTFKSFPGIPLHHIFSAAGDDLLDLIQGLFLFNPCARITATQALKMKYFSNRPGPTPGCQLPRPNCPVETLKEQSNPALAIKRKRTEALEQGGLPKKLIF
T1 sequence (P51946 whole entry partner): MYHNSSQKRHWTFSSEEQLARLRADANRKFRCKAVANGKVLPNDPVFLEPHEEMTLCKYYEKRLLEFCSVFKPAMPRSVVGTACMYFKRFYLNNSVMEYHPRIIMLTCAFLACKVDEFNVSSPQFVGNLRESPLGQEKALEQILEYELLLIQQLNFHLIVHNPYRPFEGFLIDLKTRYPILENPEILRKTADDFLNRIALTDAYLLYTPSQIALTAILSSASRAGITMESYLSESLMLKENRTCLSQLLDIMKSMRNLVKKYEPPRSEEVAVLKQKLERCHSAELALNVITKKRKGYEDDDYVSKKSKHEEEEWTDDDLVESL
T1 sequence (P51948 whole entry partner): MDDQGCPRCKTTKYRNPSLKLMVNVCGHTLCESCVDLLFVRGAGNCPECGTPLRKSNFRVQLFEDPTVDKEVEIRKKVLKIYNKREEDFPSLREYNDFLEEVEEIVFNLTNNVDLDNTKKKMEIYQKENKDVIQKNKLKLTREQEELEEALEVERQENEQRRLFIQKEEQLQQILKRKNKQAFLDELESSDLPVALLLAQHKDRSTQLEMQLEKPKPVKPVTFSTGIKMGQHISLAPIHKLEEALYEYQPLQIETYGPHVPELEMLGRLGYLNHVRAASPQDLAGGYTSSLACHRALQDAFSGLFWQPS

As for `Cc1c(C(C)NC2CC2)cnc2c(F)cc(-c3nc(N[C@@H]4CCOC[C@H]4O)ncc3Cl)cc12` (single isomer, unassigned) [Example 91b], the IC50 in assay [1] was no less than 1000 nM; in assay [2], no less than 1000 nM; in assay [3], less than 10 nM.

`CC(C)(N)c1cnc2ccc(-c3nc(N[C@@H]4CCOC[C@H]4O)ncc3Cl)cc2c1` [Example 26]: the IC50 is no less than 1000 nM in assay [1], 100 to 1000 nM in assay [2] and 10 to 100 nM in assay [3].

For the compound `Cc1c(C(C)(C)O)cnc2c(F)cc(-c3nc(N[C@@H]4CCOC[C@H]4O)ncc3F)cc12` [Example 23, (3S,4R)-4-((5-fluoro-4-(8-fluoro-3-(2-hydroxypropan-2-yl)-4-methylquinolin-6-yl)pyrimidin-2-yl)amino)tetrahydro-2H-pyran-3-ol], the figures for the IC50 in assay [1], in assay [2] and in assay [3] were 10 to 100 nM, 100 to 1000 nM and less than 10 nM, respectively.

As for `Cc1nc2c(F)cc(-c3nc(N[C@@H]4CCOC[C@H]4O)ncc3Cl)cc2c(C)c1[C@@H](C)O` (single isomer, unassigned) [Example 15a], the IC50 in assay [1] is no less than 1000 nM; in assay [2] it was 100 to 1000 nM; in assay [3], less than 10 nM.

Regarding `CNC(C)c1cnc2c(F)cc(-c3nc(N[C@@H]4CCOC[C@H]4O)ncc3Cl)cc2c1` (single isomer, unassigned) [Example 32a], the values for the IC50 in assay [1], in assay [2] and in assay [3] were no less than 1000 nM, 100 to 1000 nM and less than 10 nM, respectively.

Consider `O[C@@H]1COCC[C@H]1Nc1ncc(Cl)c(-c2cc(F)c3ncc(C4(O)CC4)cc3c2)n1` [Example 29], for which the IC50 was no less than 1000 nM in assay [1], 100 to 1000 nM in assay [2] and 10 to 100 nM in assay [3].

Consider `Cc1nc2c(F)cc(-c3nc(N[C@@H]4CCOC[C@H]4O)ncc3F)cc2c(C)c1C(C)O` (single isomer, unassigned) [Example 81a], for which the results for the IC50 in assay [1], in assay [2] and in assay [3] were 100 to 1000 nM, 100 to 1000 nM and less than 10 nM, respectively.

As to `O[C@@H]1COCC[C@H]1Nc1ncc(F)c(-c2cc(F)c3ncc4c(c3c2)CNC2(CC2)C4)n1` [Example 56], the IC50 was 10 to 100 nM in assay [1], 10 to 100 nM in assay [2] and less than 10 nM in assay [3].

As for `CC1(C)Cc2cnc3c(F)cc(-c4ccnc(N[C@@H]5CCOC[C@H]5O)n4)cc3c2CN1` [Example 107], the IC50 was 100 to 1000 nM in assay [1], 100 to 1000 nM in assay [2] and less than 10 nM in assay [3].

In the case of `Cc1nc2c(F)cc(-c3nc(N[C@@H]4CCOC[C@H]4O)ncc3F)cc2c2c1CC1(CC1)NC2` [Example 65], the results for the IC50 in assay [1], in assay [2] and in assay [3] were 100 to 1000 nM, 100 to 1000 nM and less than 10 nM, respectively.

Turning to `Cc1c(C(C)(C)O)cnc2c(C)cc(-c3nc(N[C@@H]4CCOC[C@H]4O)ncc3Cl)cc12` [Example 58], the figures for the IC50 in assay [1], in assay [2] and in assay [3] were no less than 1000 nM, no less than 1000 nM and less than 10 nM, respectively.

For `O[C@@H]1COCC[C@H]1Nc1ncc(Cl)c(-c2cc(F)c3c(c2)N2CCNC[C@@H]2CO3)n1` [Example 19, (3S,4R)-4-((5-chloro-4-((R)-7-fluoro-1,2,3,4,4a,5-hexahydrobenzo[b]pyrazino[1,2-d][1,4]oxazin-9-yl)pyrimidin-2-yl)amino)tetrahydro-2H-pyran-3-ol], the IC50 is 10 to 100 nM in assay [1], 10 to 100 nM in assay [2] and less than 10 nM in assay [3].

For `Cc1nc2c(F)cc(-c3nc(N[C@@H]4CCOC[C@H]4O)ncc3Cl)cc2cc1C1CCCN1` (single isomer, unassigned) [Example 57a], the figures for the IC50 in assay [1], in assay [2] and in assay [3] were no less than 1000 nM, 100 to 1000 nM and less than 10 nM, respectively.

Regarding `O[C@@H]1COCC[C@H]1Nc1ncc(Cl)c(-c2cc(F)c3ncc4c(c3c2)CNC2(CC2)C4)n1` [Example 21, (3S,4R)-4-((5-chloro-4-(7-fluoro-1,4-dihydro-2H-spiro[benzo[c][2,6]naphthyridine-3,1′-cyclopropan]-9-yl)pyrimidin-2-yl)amino)tetrahydro-2H-pyran-3-ol], the IC50 is no less than 1000 nM in assay [1], 100 to 1000 nM in assay [2] and less than 10 nM in assay [3].

Turning to `O[C@@H]1COCC[C@H]1Nc1cc(-c2cc(F)c3ncc4c(c3c2)CNCC4)c(Cl)cn1` [Example 25], the IC50 in assay [1] is 10 to 100 nM; in assay [2], 10 to 100 nM; in assay [3], less than 10 nM.

In the case of `CC1(C)Cc2cnc3c(F)cc(-c4nc(N[C@@H]5CCOC[C@H]5O)ncc4F)cc3c2CN1` [Example 24, (3S,4R)-4-((5-fluoro-4-(7-fluoro-3,3-dimethyl-1,2,3,4-tetrahydrobenzo[c][2,6]naphthyridin-9-yl)pyrimidin-2-yl)amino)tetrahydro-2H-pyran-3-ol], the IC50 was 100 to 1000 nM in assay [1], 100 to 1000 nM in assay [2] and less than 10 nM in assay [3].

On to `CC1Cc2cnc3c(F)cc(-c4nc(N[C@@H]5CCOC[C@H]5O)ncc4Cl)cc3c2CN1` (single isomer, unassigned) [Example 34b], for which the IC50 in assay [1] is no less than 1000 nM; in assay [2], no less than 1000 nM; in assay [3], less than 10 nM.

With `Cc1nc2c(F)cc(-c3nc(N[C@@H]4CCOC[C@H]4O)ncc3Cl)cc2cc1C(C)(C)O` [Example 5, (3S,4R)-4-((5-chloro-4-(8-fluoro-3-(2-hydroxypropan-2-yl)-2-methylquinolin-6-yl)pyrimidin-2-yl)amino)tetrahydro-2H-pyran-3-ol], the IC50 in assay [1] is no less than 1000 nM; in assay [2] it was no less than 1000 nM; in assay [3] it was less than 10 nM.

For the compound `CC1(C)Cc2cnc3c(F)cc(-c4nc(N[C@@H]5CCOC[C@H]5O)ncc4C#N)cc3c2CN1` [Example 49], the IC50 in assay [1] is no less than 1000 nM; in assay [2] it was no less than 1000 nM; in assay [3] it was less than 10 nM.

Consider `CC(C)(O)c1cnc2c(F)cc(-c3nc(N[C@@H]4CCOC[C@H]4O)ncc3Cl)cc2c1Cl` [Example 17, (3S,4R)-4-((5-chloro-4-(4-chloro-8-fluoro-3-(2-hydroxypropan-2-yl)quinolin-6-yl)pyrimidin-2-yl)amino)tetrahydro-2H-pyran-3-ol], for which the IC50 in assay [1] was no less than 1000 nM; in assay [2] it was 100 to 1000 nM; in assay [3], less than 10 nM.

As to `[2H]c1nc(N[C@@H]2CCOC[C@H]2O)nc(-c2cc(F)c3nc([2H])c4c(c3c2)CNC2(CC2)C4)c1Cl` [Example 68], the IC50 in assay [1] was 100 to 1000 nM; in assay [2] it was 100 to 1000 nM; in assay [3], less than 10 nM.

For the compound `Cc1nc2c(F)cc(-c3nc(N[C@@H]4CCOC[C@H]4O)ncc3Cl)cc2c(C)c1[C@H](C)O` (single isomer, unassigned) [Example 15b], the IC50 in assay [1] is 100 to 1000 nM; in assay [2], 100 to 1000 nM; in assay [3] it was less than 10 nM.

In the case of `Cc1c(C(C)O)cnc2c(F)cc(-c3nc(N[C@@H]4CCOC[C@H]4O)ncc3Cl)cc12` (single isomer, unassigned) [Example 88a], the IC50 in assay [1] was 100 to 1000 nM; in assay [2] it was 100 to 1000 nM; in assay [3], less than 10 nM.

With `CC(O)c1cnc2c(F)cc(-c3nc(N[C@@H]4CCOC[C@H]4O)ncc3Cl)cc2c1Cl` (single isomer, unassigned) [Example 40a], the IC50 is 100 to 1000 nM in assay [1] and less than 10 nM in assay [3].
